Columns and labels:
Test in all cases: relative viability (nuclei count vs DMSO), 5 days (fraction); higher = more cells survive
[1] = compound: Cc1ccc(NC(=O)c2ccc(CN3CCN(C)CC3)cc2)cc1Nc1nccc(-c2cccnc2)n1 [Imatinib] + N=C(N)NC(=N)NCCc1ccccc1 [Phenformin] (partner 250 µM)
How it was run: (§1)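 A single step with final 0.05% Triton X-100, 1% formaldehyde and 1 ug/ml Hoechst fixed the cells and stained nuclei 5 days after treatment. Lung cancer cell lines in 1536-well plates had been treated by pin tool the day after seeding with one drug alone or a fixed anchor-drug dose plus five library-drug doses (not always all listed) in √10 steps, and nuclei were counted on 4× images. Relative viability is the ratio of nuclei in treated wells to nuclei in vehicle wells, taken as the median of duplicate plates.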

[2] = compound: Cc1ccc(NC(=O)c2ccc(CN3CCN(C)CC3)cc2)cc1Nc1nccc(-c2cccnc2)n1 [Imatinib] + CC(=O)Nc1cccc(-n2c(=O)n(C3CC3)c(=O)c3c(Nc4ccc(I)cc4F)n(C)c(=O)c(C)c32)c1 [Trametinib] (partner 0.02 µM)
How it was run: as §1

[3] = compound: Cc1ccc(NC(=O)c2ccc(CN3CCN(C)CC3)cc2)cc1Nc1nccc(-c2cccnc2)n1 [Imatinib] + NC(=O)Nc1cc(-c2cccc(F)c2)sc1C(=O)N[C@H]1CCCNC1 [AZD7762] (partner 0.2 µM)
How it was run: as §1

[4] = compound: Cc1ccc(NC(=O)c2ccc(CN3CCN(C)CC3)cc2)cc1Nc1nccc(-c2cccnc2)n1 [Imatinib] + Cc1cc(Nc2cc(N3CCN(C)CC3)nc(Sc3ccc(NC(=O)C4CC4)cc3)n2)n[nH]1 [Tozasertib] (partner 0.1 µM)
How it was run: as §1

Cell Line | relative viability ([1]; first compound 0.02 µM) | relative viability ([1]; first compound 0.2 µM) | relative viability ([1]; first compound 0.6325 µM) | relative viability ([1]; first compound 2 µM) | relative viability ([2]; first compound 0.02 µM) | relative viability ([2]; first compound 0.06325 µM) | relative viability ([2]; first compound 0.2 µM) | relative viability ([2]; first compound 0.6325 µM) | relative viability ([2]; first compound 2 µM) | relative viability ([3]; first compound 0.02 µM) | relative viability ([3]; first compound 0.06325 µM) | relative viability ([3]; first compound 0.2 µM) | relative viability ([3]; first compound 0.6325 µM) | relative viability ([4]; first compound 0.02 µM) | relative viability ([4]; first compound 0.2 µM) | relative viability ([4]; first compound 0.6325 µM) | relative viability ([4]; first compound 2 µM) | relative viability ([1]; first compound 0.06325 µM) | relative viability ([3]; first compound 2 µM) | relative viability ([4]; first compound 0.06325 µM)
CAL-12T | 0.558 | 0.674 | 0.618 | 0.555 | 0.336 | 0.324 | 0.321 | 0.411 | 0.398 | 0.692 | 0.724 | 0.637 | 0.699 | 0.369 | 0.311 | 0.293 | 0.225 | – | – | –
NCI-H3122 | 0.394 | 0.366 | – | 0.357 | 0.25 | 0.292 | 0.236 | 0.253 | 0.216 | – | – | 1.07 | 0.926 | 0.376 | 0.514 | – | 0.383 | 0.38 | 1.05 | 0.373
A-427 | 0.327 | 0.316 | 0.27 | 0.237 | 0.745 | 0.786 | 0.757 | 0.76 | 0.712 | 0.812 | 0.84 | 0.634 | 0.654 | 0.192 | 0.176 | 0.195 | 0.197 | – | 0.572 | –
LU99A | 0.887 | 0.77 | 0.899 | 0.785 | 0.53 | 0.638 | 0.517 | 0.556 | 0.318 | 0.437 | 0.274 | 0.336 | 0.254 | 0.283 | 0.219 | 0.261 | 0.238 | 0.923 | 0.405 | 0.31
NCI-H2087 | 0.478 | 0.478 | 0.548 | 0.535 | 0.179 | – | 0.221 | 0.189 | – | 1.33 | – | 1.58 | 1.35 | 0.247 | 0.206 | 0.202 | 0.183 | – | – | –
